Source: patent US12329726B2, “Biomarkers for efficacy of prophylactic treatments against stress-induced affective disorders” (The Trustees of Columbia University in the City of New York, priority 2017, dated 2025)

How the values were obtained:
[1] = test system: plasma metabolites; assay: Untargeted metabolomic profiling of plasma, stressed mice (ketamine + CFC); details: prophylactic ketamine + stress
[2] = test system: PFC metabolites; assay: Untargeted metabolomic profiling of prefrontal cortex (PFC), stressed mice (ketamine + CFC)
[3] = test system: 129S6/SvEvTac mice; assay: Context exposure without shocks (no-shock control), freezing; details: ketamine 30 mg kg-1 i.p., 1 week before context exposure without shocks; vs saline
[4] = test system: PFC metabolites; assay: Metabolomic profiling of PFC, non-stressed mice (ketamine, no shock)
[5] = test system: HPC metabolites; assay: Metabolomic profiling of HPC, non-stressed mice (ketamine, no shock); details: context exposure group (no shock), following prophylactic ketamine administration
[6] = test system: mouse models of stress; details: cited from earlier work
[7] = test system: treatment-resistant MDD (TRD) patients; details: cited from earlier work
[8] = test system: plasma amino acid-derived neurotransmitters and precursors; assay: Separate plasma analysis of metabolites involved in neurotransmission, stressed mice; assay type: in vivo
[9] = test system: plasma metabolites; assay: Metabolomic profiling of plasma, non-stressed mice (ketamine, no shock); details: prophylactic ketamine, mice not administered shocks
[10] = test system: 129S6/SvEvTac mice; assay: 3-shock contextual fear conditioning (CFC), freezing; details: ketamine 30 mg kg-1 i.p., single dose 1 week before 3-shock CFC; vs saline
[11] = test system: HPC metabolites; assay: Untargeted metabolomic profiling of hippocampus (HPC), stressed mice (ketamine + CFC)
[12] = biological target: T1, kappa-opioid receptor (KOR) (Rattus norvegicus, UniProt P34975); details: administered before the FPS test; cited from earlier work
T1 construct: host or cells: live rats (behavioural test)
T1 sequence (P34975 whole entry): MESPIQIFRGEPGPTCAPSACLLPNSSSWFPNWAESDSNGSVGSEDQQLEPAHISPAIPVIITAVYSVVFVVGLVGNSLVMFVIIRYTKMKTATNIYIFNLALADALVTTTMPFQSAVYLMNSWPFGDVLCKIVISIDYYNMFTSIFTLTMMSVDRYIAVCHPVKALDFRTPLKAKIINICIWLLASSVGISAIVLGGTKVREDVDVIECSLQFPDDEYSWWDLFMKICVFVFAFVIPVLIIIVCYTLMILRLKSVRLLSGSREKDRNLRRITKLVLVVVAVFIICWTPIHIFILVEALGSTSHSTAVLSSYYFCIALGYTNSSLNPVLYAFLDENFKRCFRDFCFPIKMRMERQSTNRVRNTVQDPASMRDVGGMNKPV

[13] = PFC, CFC group, following prophylactic ketamine administration
[14] = prophylactic ketamine + stress, MetaboAnalyst 3.0
[15] = prophylactic ketamine + stress, vs saline
[16] = ketamine 30 mg/kg without CFC stress
[17] = single injection 30 mg kg-1, 1 week before a stressor
[18] = Plasma, CFC group, following prophylactic ketamine administration
[19] = HPC, CFC group, following prophylactic ketamine administration

Question: Which “Pathway analysis of changed metabolites in plasma” value [1] does the source give for `CNC1(c2ccccc2Cl)CCCCC1=O` (racemic) [ketamine, (RS)-2-(2-chlorophenyl)-2-(methylamino)cyclohexanone] here?
Answer: purine metabolism, pyrimidine metabolism, the citrate cycle (TCA cycle), and the pentose phosphate pathway were most significantly changed

Question: And the “Ribose and ribulose phosphate (pentose phosphate pathway intermediates) in plasma” value [1]?
Answer: significantly changed

Question: And the “Purine metabolites in the plasma” value ([1]; vs saline)?
Answer: significantly increased purine metabolites

Question: And the “Pyrimidine metabolites in the plasma” value ([1]; with the exception of 5,6-dihydrouridine)?
Answer: increased expression of pyrimidine metabolites

Question: What about the “D-Serine (Ser) level, change” value [2, 13] of the same compound?
Answer: Decrease

Question: What about the “Glycine (Gly) level, change” value [2, 13] of the same compound?
Answer: Decrease

Question: What about the “L-Tyrosine (Tyr) level, change” value [2, 13] of the same compound?
Answer: Decrease

Question: And the “Phenylalanine (Phe) level, change” value [2, 13]?
Answer: Decrease

Question: What about the “Correlation of dUDP expression in the PFC with freezing levels upon context re-exposure” value ([2]; mice given prophylactic ketamine prior to stress, regression analysis) of the same compound?
Answer: positively correlated with freezing levels

Question: And the “Number of metabolites changed in the same direction in both hemispheres of the PFC and HPC” value ([2]; of the 8 changed, prophylactic ketamine + stress)?
Answer: 6 metabolites

Question: What about the “Number of metabolites changed in both hemispheres of the PFC and HPC” value ([2]; prophylactic ketamine 30 mg kg-1 + CFC stressor, PFC and HPC) of the same compound?
Answer: 8 metabolites

Question: What about the “Pathway analysis of changed metabolites in the PFC” value [2, 14] of the same compound?
Answer: purine metabolism; phenylalanine, tyrosine, and tryptophan metabolism; and phenylalanine metabolism are most significantly changed

Question: What about the “Levels of AMP and ATP in PFC, HPC and plasma” value ([2]; prophylactic ketamine + stress, both hemispheres of PFC and HPC, and plasma) of the same compound?
Answer: increases levels of adenosine monophosphate (AMP) and ATP

Question: And the “Inhibitory neurotransmitter metabolites in PFC and HPC” value ([2]; prophylactic ketamine + stress, e.g. alanine, GABA, taurine)?
Answer: almost all inhibitory neurotransmitter metabolites were increased

Question: What about the “Excitatory neurotransmitter metabolites in PFC and HPC” value ([2]; prophylactic ketamine + stress, e.g. serine, tyrosine, phenylalanine, exception glutamic acid) of the same compound?
Answer: nearly all excitatory neurotransmitter metabolites were decreased

Question: And the “Adenosine and guanosine metabolites in both hemispheres of PFC and HPC” value [2, 15]?
Answer: increased

Question: And the “Inosine metabolites in both hemispheres of PFC and HPC” value [2, 15]?
Answer: decreased

Question: And the “Freezing behavior during context exposure or re-exposure, no shocks” value [3]?
Answer: did not alter freezing behavior during context exposure or re-exposure

Question: What about the “Number of purine metabolites significantly altered in one hemisphere of PFC or HPC, no stress” value [4, 16] of the same compound?
Answer: 3 metabolites

Question: What about the “Number of pyrimidines significantly altered in one hemisphere of PFC or HPC, no stress” value [4, 16] of the same compound?
Answer: 2

Question: What about the “Purine metabolite changes in PFC and HPC without stress” value ([4]; prophylactic ketamine without stress) of the same compound?
Answer: these changes were not observed

Question: And the “Amino acid-derived neurotransmitter metabolites in brain of non-stressed mice” value ([4]; prophylactic ketamine, non-stressed mice)?
Answer: only the inhibitory neurotransmitter metabolite taurine was changed

Question: What about the “Taurine (Tau) level, change” value [5] of the same compound?
Answer: Increase

Question: What about the “Time window for prophylactic efficacy before a stressor” value ([6]; not 1 month or 1 hour before) of the same compound?
Answer: approximately 1 week

Question: And the “Duration of protection after injection” value [6, 17]?
Answer: up to 4 weeks

Question: And the “Stress-induced depressive-like behavior and social avoidance behavior” value [6, 17]?
Answer: prevented stress-induced depressive-like behavior and social avoidance behavior

Question: What about the “Persistence of antidepressant effects” value ([7]; following a single infusion) of the same compound?
Answer: 1-2 weeks

Question: And the Antidepressant onset ([7]; single infusion, TRD patients)?
Answer: ≤ 2 h

Question: What about the “5-Hydroxy-L-tryptophan (5-HTP) level, change” value [8, 18] of the same compound?
Answer: Increase

Question: And the “D-Serine (Ser) level, change” value [8, 18]?
Answer: Decrease

Question: And the “Gamma-aminobuytric acid (GABA) level, change” value [8, 18]?
Answer: Decrease

Question: What about the “L-Glutamic acid (Glu) level, change” value [8, 18] of the same compound?
Answer: Decrease

Question: What about the “N-Acetyl-L-tyrosine (NALT) level, change” value [8, 18] of the same compound?
Answer: Decrease

Question: What about the “O-Phosphoethanolamine (PE) level, change” value [8, 18] of the same compound?
Answer: Increase

Question: What about the “Plasma serine and glutamic acid (excitatory neurotransmitters)” value ([8]; prophylactic ketamine + stress) of the same compound?
Answer: serine and glutamic acid were decreased

Question: And the “Purine or pyrimidine metabolites in plasma, no shocks” value [9]?
Answer: no changes in purines or pyrimidine metabolites were observed

Question: And the “Fear response (freezing) during context re-exposure” value [10]?
Answer: attenuated the fear response

Question: What about the “Freezing behavior during CFC encoding (training)” value [10] of the same compound?
Answer: did not alter freezing behavior during CFC encoding

Question: What about the “D-Alanine (Ala) level, change” value [11, 19] of the same compound?
Answer: Increase

Question: What about the “Gamma-aminobuytric acid (GABA) level, change” value [11, 19] of the same compound?
Answer: Increase

Question: And the “L-Glutamic acid (Glu) level, change” value [11, 19]?
Answer: Increase

Question: What about the “O-Phosphoethanolamine (PE) level, change” value [11, 19] of the same compound?
Answer: Increase

Question: And the “Taurine (Tau) level, change” value [11, 19]?
Answer: Increase

Question: What about the “Pathway analysis of changed metabolites in the HPC: further pathways” value [11, 14] of the same compound?
Answer: altered alanine, aspartate, and glutamate metabolism; glutamine and glutamate metabolism; and taurine and hypotaurine metabolism

Question: And the “Pathway analysis of changed metabolites in the HPC: purine metabolism” value [11, 14]?
Answer: purine metabolism was also significantly altered

Question: With `Oc1ccc2c3c1O[C@H]1c4[nH]c5c(c4C[C@@]4(O)[C@@H](C2)N(CC2CC2)CC[C@]314)C[C@@]1(O)[C@H]2Cc3ccc(O)c4c3[C@@]1(CCN2CC1CC1)[C@H]5O4` [norBNI, nor-binaltorphimine] as the compound, how does the “Conditioned fear in FPS test” value [12] read?
Answer: attenuated conditioned fear
